# According to patent US11596639B2, “Substituted indole Mcl-1 inhibitors” (Vanderbilt University, priority 2016, dated 2023):
# How the values were obtained:
# [1] = system: H929 human cancer cell lines; test: Cellular viability / proliferation (Cell TiterGlo, 72 h); format: cell-based; details: Homo sapiens, NCI-H929, 72 h, read-out: GI50 on cellular proliferation of H929 human cancer cell lines, H929 cells, 72 h, Cell TiterGlo, 10% FBS
# Summary of the method: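 Top dose 50 μM, serially diluted 2-fold, applied one day after seeding (1,000 cells/well, 10% FBS), DMSO below 1%.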
# [2] = molecular target: Mcl-1 (Homo sapiens (Human), UniProt Q07820); test: Fluorescence polarization anisotropy (FPA) competition assay, FITC-Bak or FITC-Bim BH3 peptide; format: binding; details: read-out: Ki for Inhibition of Mcl-1 by FPA assay
# Sequence of Mcl-1 (Q07820 172-327): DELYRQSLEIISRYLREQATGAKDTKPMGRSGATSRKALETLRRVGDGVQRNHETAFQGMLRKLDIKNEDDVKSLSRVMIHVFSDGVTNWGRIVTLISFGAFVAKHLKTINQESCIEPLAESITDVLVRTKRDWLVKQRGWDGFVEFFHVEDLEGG
SMILES,GI50 [1],Ki [2]
"Cc1cc(OCCCc2c3n(c4c(-c5c(C)nn(C)c5C)c(Cl)ccc24)[C@H](C)CN(c2cn(C)c4cc(-c5nn[nH]n5)ccc24)C3=O)cc(C)c1Cl [Example 236, (R)-7-chloro-10-(3-(4-chloro-3,5-dimethylphenoxy)propyl)-4-methyl-2-(1-methyl-6-(2H-tetrazol-5-yl)-1H-indol-3-yl)-6-(1,3,5-trimethyl-1H-pyrazol-4-yl)-3,4-dihydropyrazino[1,2-a]indol-1(2H)-one]",1100 nM,< 1 nM
"Cc1cc(OCCCc2c3n(c4c(-c5c(C)nn(C)c5C)c(Cl)ccc24)[C@H](C)CN(c2cc(C(=O)O)c4ccn(CCN5CCOCC5)c4c2)C3=O)cc(C)c1Cl [Example 94, (R)-6-(7-chloro-10-(3-(4-chloro-3,5-dimethylphenoxy)propyl)-4-methyl-1-oxo-6-(1,3,5-trimethyl-1H-pyrazol-4-yl)-3,4-dihydropyrazino[1,2-a]indol-2(1H)-yl)-1-(2-morpholinoethyl)-1H-indole-4-carboxylic acid]",1500 nM,< 1 nM
"COc1cc(C(=O)O)cc(N2CCCn3c(c(CCCOc4cc(C)c(Cl)c(C)c4)c4ccc(Cl)c(-c5c(C)nn(C)c5C)c43)C2=O)c1OCCOc1ccccc1F [Example 65, 3-[8-Chloro-11-[3-(4-chloro-3,5-dimethyl-phenoxy)propyl]-1-oxo-7-(1,3,5-trimethylpyrazol-4-yl)-4,5-dihydro-3H-[1,4]diazepino[1,2-a]indol-2-yl]-4-[2-(2-fluorophenoxy)ethoxy]-5-methoxy-benzoic acid]",5500 nM,3.1 nM
"COc1cc(C(=O)O)cc(N2CCCn3c(c(CCCOc4cc(C)c(Cl)c(C)c4)c4ccc(Cl)c(-c5c(C)nn(C)c5C)c43)C2=O)c1OCCCO [Example 67, 3-[8-Chloro-11-[3-(4-chloro-3,5-dimethyl-phenoxy)propyl]-1-oxo-7-(1,3,5-trimethylpyrazol-4-yl)-4,5-dihydro-3H-[1,4]diazepino[1,2-a]indol-2-yl]-4-(3-hydroxypropoxy)-5-methoxy-benzoic acid]",8500 nM,< 1 nM
"Cc1cc(OCCCc2c3n(c4c(-c5c(C)nn(CCN6CCCC6)c5C)c(Cl)ccc24)[C@H](C)CN(c2cn(C)c4ccc(C(=O)O)cc24)C3=O)cc(C)c1Cl [Example 263, (R)-3-(7-chloro-10-(3-(4-chloro-3,5-dimethylphenoxy)propyl)-6-(3,5-dimethyl-1-(2-(pyrrolidin-1-yl)ethyl)-1H-pyrazol-4-yl)-4-methyl-1-oxo-3,4-dihydropyrazino[1,2-a]indol-2(1H)-yl)-1-methyl-1H-indole-5-carboxylic acid]",270 nM,1.8 nM
"COCCn1c(C(=O)O)cc2cc(C(C)C)cc(N3C[C@@H](C)n4c(c(CCCOc5cc(C)c(Cl)c(C)c5)c5ccc(Cl)c(-c6c(C)nn(C)c6C)c54)C3=O)c21 [Example 364, (R)-7-(7-Chloro-10-(3-(4-chloro-3,5-dimethylphenoxy)propyl)-4-methyl-1-oxo-6-(1,3,5-trimethyl-1H-pyrazol-4-yl)-3,4-dihydropyrazino[1,2-a]indol-2(1H)-yl)-5-isopropyl-1-(2-methoxyethyl)-1H-indole-2-carboxylic acid]",540 nM,1 nM
"Cc1cc(OCCCc2c3n(c4c(-c5c(C)nn(C)c5C)c(Cl)ccc24)[C@H](C)CN(c2cn(C)c4ccc(-c5ncn(C)n5)cc24)C3=O)cc(C)c1Cl [Example 403, (R)-7-Chloro-10-(3-(4-chloro-3,5-dimethylphenoxy)propyl)-4-methyl-2-(1-methyl-5-(1-methyl-1H-1,2,4-triazol-3-yl)-1H-indol-3-yl)-6-(1,3,5-trimethyl-1H-pyrazol-4-yl)-3,4-dihydropyrazino[1,2-a]indol-1(2H)-one]",< 200 nM,1.5 nM
